Measured values from patent publication US9000028B2, “Indole and indazole compounds as an inhibitor of cellular necrosis” (LG Life Sciences Ltd., priority 2007, dated 2015).

test system: primary hepatocytes isolated from rats; assay: Hepatocyte protective effect against substances deriving hepatocyte toxicity (WST-1 viability); format: cell-based; details: Rattus norvegicus, Hepatocyte, doxorubicin, 24-48 h, read-out: EC50, cell protective effects against doxorubicin in hepatocytes
Experimental: Various endogenous/exogenous attacks on the cells trigger the mechanisms of cell death which is broadly classified into two types, i.e. apoptosis or necrosis. Using these cell death mechanisms, in the present experimental example, primary hepatocytes isolated from rats were treated with drugs which were clinically shown to result in serious side-effects of hepatocyte toxicity or various chemicals which derive cell death, and the compounds synthesized in the Examples were estimated for their hepatocyte protective effects, after 24-48 h. The substances used to derive hepatocyte death include CCl4, ActD, H2O2, doxorubicin, anti-Fas Ab/Actinomycin D, acetaminophen, EtOH, CdCl2, palmitate, stearate, cyclophosphamide, terfenadine, diclofenac, simvastatin, and adefovir. Primary hepatocytes were isolated using the method of Seglen PO (Experimental Cell Research 74 (1972) pp 450-454). Briefly, hepatocytes were isolated according to the two-step collagenase perfusion method, and dead cells were removed by low speed (500 rpm) centrifugation for 10 min using percoll gradient (Kreamer B L etc, In Vitro Cellular & Developmental Biology 22 (1986) pp 201-211). During this step, the viability of cells was maintained 90% or above. The cells were suspended in HepatoZYME media (Gibco BRL), and the number of cells was counted. 1.5×10^4 cells in 100 μl were placed into the collagen-coated 96-well plate (BD biocoat), and adhered on the bottom for 3-4 h.
In order to assess the hepatocyte protective effect, above adhered cells were pretreated with the Example compounds for 30 min. At this time, the concentration of the Example compounds were serially diluted by 2-fold or 3-fold over 5 steps starting from 30 uM, 10 uM or 1 uM depending on the experiments, and the final concentration of DMSO was adjusted to 0.2%. 30 min after the treatment by compounds, cells were treated by the substances deriving hepatocyte death or hepatotoxic drugs at the concentrations indicated in Table 1. After 24-48 h, the viability of cells was determined to estimate the hepatocyte protective effects. The viability of cells was determined using WST-1 (MK-400, […]) method by the absorbance at 440 nm. Hepatocyte protective effects of the Example compounds were represented by “EC50,” which was calculated from measured values. “EC50” herein means the concentration of the compound at which 50% of maximum protective effect is observed in the experiment.

Compound | EC50 [nM]
Clc1cc(NCC2CCOCC2)c2[nH]cc(-c3ccccc3)c2c1 [Example 81, (Tetrahydropyran-4-yl)methyl-(5-chloro-3-phenyl-1H-indol-7-yl)-amine] | 110
Nc1ccc(-c2cc3cc(Cl)cc(NC4CCCC4)c3[nH]2)cc1 [Example 82, Cyclopentyl-[2-(4-aminophenyl)-5-chloro-1H-indol-7-yl]-amine] | 70
CN1CCC(Nc2ccc(-c3cc4cc(Cl)cc(NC5CCCC5)c4[nH]3)cc2)CC1 [Example 83, Cyclopentyl-{5-chloro-2-[4-(1-methyl-piperidin-4-yl)aminophenyl]-1H-indol-7-yl}-amine] | 50
CS(=O)(=O)Nc1ccc(-c2cc3cc(Cl)cc(NC4CCCC4)c3[nH]2)cc1 [Example 84, N-[4-(5-chloro-7-cyclopentylamino-1H-indol-2-yl)-phenyl]methanesulfonamide] | 90
CC(=O)Nc1ccc(-c2cc3cc(CN4CCS(=O)(=O)CC4)cc(NC4CCCC4)c3[nH]2)cc1 [Example 85, Cyclopentyl-{5-(1,1-dioxo-thiomorpholin-4-yl)methyl-2-[4-(acetyl)aminophenyl]-1H-indol-7-yl}-amine] | 360
CC(=O)Nc1ccc(-c2cc3cc(N4CCS(=O)(=O)CC4)cc(NCC4CCOCC4)c3[nH]2)cc1 [Example 87, (Tetrahydropyran-4-yl)methyl-{5-(1,1-dioxo-thiomorpholin-4-yl)-2-[4-(acetyl)aminophenyl]-1H-indol-7-yl}-amine] | 600
CC(=O)Nc1ccc(-c2cc3cc(N4CCS(=O)(=O)CC4)cc(NC(C4CCOCC4)C4CCOCC4)c3[nH]2)cc1 [Example 88, Di(tetrahydropyran-4-yl)methyl-{5-(1,1-dioxo-thiomorpholin-4-yl)-2-[4-(acetyl)aminophenyl]-1H-indol-7-yl}-amine] | > 2000
CC(=O)Nc1ccc(-c2cc3cc(N4CCS(=O)(=O)CC4)cc(NC4CCOCC4)c3[nH]2)cc1 [Example 89, (Tetrahydropyran-4-yl)-{5-(1,1-dioxo-thiomorpholin-4-yl)-2-[4-(acetyl)aminophenyl]-1H-indol-7-yl}-amine] | 300
Cc1cc(NC2CCNCC2)c2[nH]c(-c3ccccc3)cc2c1 [Example 90, (5-Methyl-2-phenyl-1H-indol-7-yl)-piperidin-4-yl-amine] | 146
Cc1cc(NC2CCN(S(C)(=O)=O)CC2)c2[nH]c(-c3ccccc3)cc2c1 [Example 91, [1-(Methanesulfonyl)piperidin-4-yl]-(5-methyl-2-phenyl-1H-indol-7-yl)-amine] | 42
Cc1cc(NC2CCN(C(=O)CO)CC2)c2[nH]c(-c3ccccc3)cc2c1 [Example 92, 2-Hydroxy-1-[4-(5-methyl-2-phenyl-1H-indol-7-yl)amino-piperidin-1-yl]-ethanone] | 36
Clc1cc(NC2CCNCC2)c2[nH]c(-c3ccccc3)cc2c1 [Example 93, (5-Chloro-2-phenyl-1H-indol-7-yl)-piperidin-4-yl-amine] | 160
O=C(Nc1ccccc1)N1CCC(Nc2cc(Cl)cc3cc(-c4ccccc4)[nH]c23)CC1 [Example 94, 4-(5-Chloro-2-phenyl-1H-indol-7-yl)amino-piperidin-1-yl-carboxylic acid phenylamide] | 80
CN(C)CC(=O)N1CCC(Nc2cc(Cl)cc3cc(-c4ccccc4)[nH]c23)CC1 [Example 95, 1-[4-(5-Chloro-2-phenyl-1H-indol-7-yl)amino-piperidin-1-yl]-2-dimethylamino-ethanone] | 210
O=S1(=O)CCN(Cc2cc(NCC3CCNCC3)c3[nH]c(-c4ccccc4)cc3c2)CC1 [Example 96, [5-(1,1-Dioxo-thiomorpholin-4-yl)methyl-2-phenyl-1H-indol-7-yl]-(piperidin-4-yl)methyl-amine] | 120
O=C(C1CCCO1)N1CCC(Nc2cc(CN3CCS(=O)(=O)CC3)cc3cc(-c4ccccc4)[nH]c23)CC1 (stereo not drawn) [Example 98, {4-[5-(1,1-Dioxo-thiomorpholin-4-yl)methyl-2-phenyl-1H-indol-7-yl]amino-piperidin-1-yl}-(tetrahydrofuran-2-yl)-methanone] | 110
O=S1(=O)CCC(N2CCC(Nc3cc(F)cc4cc(-c5ccccc5)[nH]c34)CC2)CC1 [Example 99, (5-Fluoro-2-phenyl-1H-indol-7-yl)-[1-(1,1-dioxo-tetrahydrothiopyran-4-yl)-piperidin-4-yl]-amine] | 200
CN(C)C1CCC(Nc2cc(Cl)cc3cc(-c4ccccc4)[nH]c23)CC1 (stereo not drawn) [Example 100, N-(5-chloro-2-phenyl-1H-indol-7-yl)-N′,N′-dimethyl-cyclohexane-1,4-diamine] | 80

Compound | EC50 [nM]
CNC1CCC(Nc2cc(Cl)cc3cc(-c4ccccc4)[nH]c23)CC1 (stereo not drawn) [Example 101, N-(5-chloro-2-phenyl-1H-indol-7-yl)-N′-methyl-cyclohexane-1,4-diamine] | 80
O=C(O)C1CCC(Nc2cc(Cl)cc3cc(-c4ccccc4)[nH]c23)CC1 (stereo not drawn) [Example 102, 4-(5-Chloro-2-phenyl-1H-indol-7-yl)amino-cyclohexane-1-carboxylic acid] | 300
Cc1cc(NC2CCC(C(=O)O)CC2)c2[nH]c(-c3ccccc3)cc2c1 (stereo not drawn) [Example 103, 4-(5-Methyl-2-phenyl-1H-indol-7-yl)amino-cyclohexane-1-carboxylic acid] | 106
NC(=O)C1CCC(Nc2cc(Cl)cc3cc(-c4ccccc4)[nH]c23)CC1 (stereo not drawn) [Example 104, 4-(5-Chloro-2-phenyl-1H-indol-7-yl)amino-cyclohexane-1-carboxylic acid amide] | 80
CNC(=O)C1CCC(Nc2cc(Cl)cc3cc(-c4ccccc4)[nH]c23)CC1 (stereo not drawn) [Example 105, 4-(5-Chloro-2-phenyl-1H-indol-7-yl)amino-cyclohexanecarboxylic acid methylamide] | 70
O=C(O)CNc1cc(Oc2ccccc2)cc2cc(-c3ccccc3)[nH]c12 [Example 109, 2-[(5-Phenoxy-2-phenyl-1H-indol-7-yl)amino]-acetic acid] | 257
CC(Nc1cc(Oc2ccccc2)cc2cc(-c3ccccc3)[nH]c12)C(=O)O (stereo not drawn) [Example 111, 2-(5-Phenoxy-2-phenyl-1H-indol-7-yl)amino-propionic acid] | 257
CC(Nc1cc(Cl)cc2cc(-c3ccccc3)[nH]c12)C(=O)O (stereo not drawn) [Example 112, 2-(5-Chloro-2-phenyl-1H-indol-7-yl)amino-propionic acid] | 450
Clc1cc(Nc2ccccn2)c2[nH]c(-c3ccccc3)cc2c1 [Example 113, (5-Chloro-2-phenyl-1H-indol-7-yl)-pyridin-2-yl-amine] | 350
Cc1ccc(Nc2cc(Cl)cc3cc(-c4ccccc4)[nH]c23)nc1 [Example 114, (5-Chloro-2-phenyl-1H-indol-7-yl)-5-methyl-pyridin-2-yl-amine] | 370
O=C(O)[C@@H]1CCCN1C(=O)c1cc(NC2CCOCC2)c2[nH]c(-c3ccccc3)cc2c1 [Example 118, (2S)-1-[2-phenyl-7-(tetrahydropyran-4-yl)amino-1H-indole-5-carbonyl]-pyrrolidine-2-carboxylic acid] | 1100
O=C(Cc1cc(NC2CCCC2)c2[nH]c(-c3ccccc3)cc2c1)N1CCCC1 [Example 119, 2-(7-Cyclopentylamino-2-phenyl-1H-indol-5-yl]-1-pyrrolidin-1-yl-ethanone] | 140
O=C(O)C[C@@H]1CSC(c2cc(NC3CCCC3)c3[nH]c(-c4ccccc4)cc3c2)=N1 [Example 121, 2-[(R)-2-(7-cyclopentylamino-2-phenyl-1H-indol-5-yl)-4,5-dihydro-thiazol-4-yl]-acetic acid] | 200
O=C(O)C[C@@H]1CSC(c2cc(NCC3CCOCC3)c3[nH]c(-c4ccccc4)cc3c2)=N1 [Example 122, 2-[(R)-2-(2-phenyl-7-(tetrahydropyran-4-yl)methylamino-1H-indol-5-yl)-4,5-dihydro-thiazol-4-yl]-acetic acid] | 200
COC(=O)c1cccc(-c2cc3cc(Cl)cc(NC4CCCC4)c3[nH]2)c1 [Example 123, 3-(7-Cyclopentylamino-5-chloro-1H-indol-2-yl)-benzoic acid methyl ester] | 190
O=C(O)c1cccc(-c2cc3cc(Cl)cc(NC4CCCC4)c3[nH]2)c1 [Example 124, 3-(7-Cyclopentylamino-5-chloro-1H-indol-2-yl)-benzoic acid] | 150
OCc1cccc(-c2cc3cc(Cl)cc(NC4CCCC4)c3[nH]2)c1 [Example 125, [3-(5-Chloro-7-cyclopentylamino-1H-indol-2-yl)-phenyl]-methanol] | 111
OCc1cccc(-c2cc3cc(Cl)cc(NC4CCOCC4)c3[nH]2)c1 [Example 126, {3-[5-Chloro-7-(tetrahydropyran-4-yl)amino-1H-indol-2-yl]-phenyl}-methanol] | 200
